What was measured:
Assay in all cases: relative viability (nuclei count vs DMSO), 5 days (fraction); higher = more cells survive
[1] = compound: CN[C@@H]1C[C@H]2O[C@@](C)([C@@H]1OC)n1c3ccccc3c3c4c(c5c6ccccc6n2c5c31)C(=O)NC4 [Staurosporine] + Cc1nc(NC(=O)N2CCC[C@H]2C(N)=O)sc1-c1ccnc(C(C)(C)C(F)(F)F)c1 [Alpelisib] (partner 2 µM)
Method in brief: (§1)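 Relative viability was taken as the ratio of nuclei in treated wells to nuclei in vehicle wells. Lung cancer cell lines in 1536-well plates received compounds by pin tool one day after seeding, either one drug alone or a fixed anchor-drug dose plus five library-drug doses (not always all listed) in √10 steps. Nuclei were counted on 4× images after 5 days of treatment, and values are medians of duplicate plates.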

[2] = compound: CN[C@@H]1C[C@H]2O[C@@](C)([C@@H]1OC)n1c3ccccc3c3c4c(c5c6ccccc6n2c5c31)C(=O)NC4 [Staurosporine] + CC(C)C[C@H](NC(=O)[C@H](Cc1ccccc1)NC(=O)c1cnccn1)B(O)O [Bortezomib] (partner 0.002 µM)
Method in brief: as §1

[3] = compound: CC1=C(CC(=O)O)c2cc(F)ccc2/C1=C\c1ccc([S+](C)[O-])cc1 [Sulindac] + O=C(CCCCCCC(=O)Nc1ccccc1)NO [Vorinostat] (partner 1 µM)
Method in brief: as §1

[4] = compound: CC1=C(CC(=O)O)c2cc(F)ccc2/C1=C\c1ccc([S+](C)[O-])cc1 [Sulindac] + NC(=O)Nc1cc(-c2cccc(F)c2)sc1C(=O)N[C@H]1CCCNC1 [AZD7762] (partner 0.2 µM)
Method in brief: as §1

Cell Line | relative viability ([1]; first compound 0.005 µM) | relative viability ([1]; first compound 0.05 µM) | relative viability ([1]; first compound 0.1581 µM) | relative viability ([1]; first compound 0.5 µM) | relative viability ([2]; first compound 0.005 µM) | relative viability ([2]; first compound 0.05 µM) | relative viability ([2]; first compound 0.1581 µM) | relative viability ([2]; first compound 0.5 µM) | relative viability ([3]; first compound 0.08 µM) | relative viability ([3]; first compound 0.253 µM) | relative viability ([3]; first compound 2.53 µM) | relative viability ([3]; first compound 8 µM) | relative viability ([4]; first compound 0.08 µM) | relative viability ([4]; first compound 0.253 µM) | relative viability ([4]; first compound 2.53 µM) | relative viability ([4]; first compound 8 µM) | relative viability ([1]; first compound 0.01581 µM) | relative viability ([2]; first compound 0.01581 µM) | relative viability ([3]; first compound 0.8 µM) | relative viability ([4]; first compound 0.8 µM)
HCC-366 | 0.363 | 0.0965 | 0.0438 | 0.0105 | 1.13 | 0.208 | 0.0142 | 0.0141 | 0.365 | 0.333 | 0.351 | 0.416 | 0.284 | 0.257 | 0.359 | 0.265 |  |  |  | 
HCC-827 | 1.1 | 0.748 |  | 0.431 | 0.942 | 0.915 | 0.564 | 0.582 | 0.908 | 0.935 | 0.805 | 0.88 | 0.218 | 0.222 | 0.204 | 0.244 | 0.852 | 0.874 | 0.743 | 0.198
HOP-62 | 1.25 | 0.115 | 0.0862 | 0.138 | 0.976 | 0.186 | 0.0948 | 0.0922 | 0.826 | 0.88 | 0.598 | 0.796 | 0.577 | 0.565 | 0.717 | 0.953 | 0.816 | 0.495 | 0.526 | 0.556
LC-2-ad | 0.178 | 0.237 | 0.0434 | 0.0442 | 0.973 | 0.508 | 0.0851 | 0.0564 | 0.833 | 0.843 | 0.693 | 0.821 | 0.972 | 0.906 | 0.815 | 0.944 | 0.338 | 0.096 | 0.669 | 0.701
LCLC-97TM1 | 0.205 | 0.166 | 0.185 | 0.179 | 0.164 | 0.219 | 0.151 | 0.0852 | 1.01 | 0.86 | 0.729 | 0.94 | 0.274 | 0.377 |  | 0.232 | 0.18 | 0.158 | 0.453 | 0.171
LCLC-103H | 1.07 | 0.365 | 0.221 | 0.178 | 1.03 | 0.364 | 0.274 | 0.251 | 0.872 | 0.773 | 0.72 | 0.799 | 0.88 | 0.799 | 0.786 | 0.91 | 0.513 | 0.613 | 0.729 | 0.708
LOU-NH91 | 0.718 | 0.457 | 0.304 | 0.305 | 0.519 | 0.54 | 0.369 | 0.374 | 0.965 | 0.97 | 0.952 | 1.1 | 0.781 | 0.809 | 0.742 | 0.817 | 0.575 | 0.461 | 0.716 | 0.627
LU99A | 0.341 | 0.19 | 0.105 | 0.118 | 0.985 | 0.318 | 0.271 | 0.172 | 0.499 | 0.465 | 0.428 | 0.551 | 0.324 | 0.467 | 0.327 | 0.404 | 0.153 | 0.389 | 0.454 | 0.433

From the supplement of paper PMC10307832
